Legend:
Type in all cases: cell-based, human
[1] = tested on: myelin reactive T cells in PBMCs; test: Epitope Analysis Assay (EAA): PBMC stimulation with myelin peptide mixes, tritiated thymidine incorporation, SI of at least 3 positive; conditions: for subjects tested that were reactive: all 54 subjects tested
Procedure: The SI may be calculated by comparing [^3H] thymidine incorporation of the sample in the presence of a peptide comprising a portion of an MRTC polypeptide target to that in the presence of a media only control. Briefly, separate aliquots of the sample are plated and incubated in the presence of either a peptide comprising a portion of the polypeptide or a media only control in order to stimulate reactive T cells. The cultures are pulsed with [^3H] thymidine during the last 6-18 hours of incubation. The SI is calculated as the quotient of the mean counts per minute (cpm) of the antigen aliquots/mean cpm of the control aliquots. The SI of autoreactive T cells may be increased by at least a factor of 1.3, 1.4, 1.5, 1.6, 1.7, 1.8, 1.9, 2.0, 2.1, 2.2, 2.3, 2.4, 2.5, 2.6, 2.7. 2.8, 2.9, 3.0, 3.1, 3.2, 3.3, 3.4, 3.5, 3.6, 3.7, 3.8, 3.9, or 4.0 compared to a control.
The peptides in Example 2 were tested in an in vitro PBMC stimulation assay to identify myelin reactive T cells in a patient's blood. Peripheral blood mononuclear cells (PBMCs) were separated from whole blood, washed, counted and plated at 250,000 cells per well in a total of four 96-well plates. Myelin peptide mixes of two overlapping 16-mer peptides were added to triplicate wells of PBMCs with triplicate media only control wells included on each plate and then incubated. After two days of incubation, 20 U/ml of interleukin-2 (IL-2) was added. On the fifth day, the plates were labeled with a radioisotope (tritiated thymidine) and harvested 6 hours later. In this assay, the cells that incorporate tritiated thymidine are representative of T cells being activated and induced to proliferate by the T cell receptor-peptide-MHC complexes. T cells incorporating comparatively more tritiated thymidine than control and experimental cells are more highly activated T cells and are proliferating more rapidly.
Stimulation Indices (SI) were determined for each peptide mix by dividing the mean radiolabel counts per minute (CPM) of the peptide stimulated wells by the mean CPM of the media only control wells averaged across all four plates. An SI of at least 3 was considered positive. FIG. 1 is an example of EAA from one MS patient. Seven of the peptide mixtures were slightly reactive, with the MOGm15 stimulated wells being very reactive. FIGS. 2-4 show the frequency of reactivity to the peptide mixes in 48 patients.

[2] = tested on: myelin reactive T cells in PBMCs; test: EAA with positivity by Variance Evaluation Method or CPM Variance Method (clinical trials); conditions: clinical trial population, RR-MS or CIS subjects
Excerpt: The predetermined value may also be calculated using a Variance Evaluation Method as follows: • 1. EAAs may be run on a given patient population (minimum of 120 assays from 120 unique subjects) • 2. A “negative population” may be created by averaging all SI values<2.5 • 3. The Standard Deviation (SD) may be calculated for each peptide • 4. The following for each peptide may be then be calculated: • a. Average+1SD • b. Average+2SD • c. Average+3SD • 5. The following SIs may be considered above the predetermined value: • a. SI greater than or equal to the average+3SD • b. Any SI greater than or equal to 2.5
The predetermined value may also be evaluated using a Counts per Minute (CPM) Variance Method. This algorithm may set a comprehensive cutoff for all peptides within a given assay. It may be calculated as follows: • 1. EAAs may be run and the CPM for all control (media only, no antigen) wells averaged. • 2. The SD for CPM of the control wells may then be calculated. • 3. The following may then be calculated for the control wells: • a. Average+1SD • b. Average+2SD • c. Average+3SD • 4. Any peptide with an average CPM greater than or equal to the average+3SD of the control wells may be considered above the predetermined value.
Any peptide, either analyzed in an individual well or as averaged over wells run in triplicate, with an SI≧2.5, an SI≧average+3SD by the Variance Evaluation Method, or an SI≧average+3SD by the CPM variance method may be considered above the predetermined value, which may indicate a T cell(s) positive for reactivity to a peptide.
The peptides of Example 3 have been tested in 429 EAAs in clinical trials as follows. […] Pre-Vaccine EAAs have 158 positive out of 387 assays (40.8%), with Relapse Remitting MS patients (RRMS) showing 150 positive of 368 assays (40.8%), and Clinically Isolated Syndrome (CIS) patients showing 8 positive of 19 assays (42.1%).
Over the course of 6 months a study was conducted with 120 subjects meeting the criteria for the clinical trial.
The above mentioned population of subjects was evaluated by EAA using the Variance Evaluation Method and CPM Variance Method as described above, and deemed eligible for vaccine production. Of the 120 attempts to manufacture vaccine, there were 2 shipping failures (blood was not received within our stated criteria), 1 culture was lost to contamination and 5 samples arrived with low cell volume/yield. Of the remaining 112 subjects, vaccine was successfully generated in 89 subjects, with 22 still in production (98.9% of eligible samples, 92.5% of all samples completed). From this, a positive EAA was deemed predictive of the ability to manufacture a vaccine to therapeutic dose by methods disclosed herein.

[3] = tested on: T cell receptor variable beta chain usage (Vβ); test: TCR V beta analysis of peptide-stimulated T cell line by flow cytometry; conditions: Day 9 to Day 16 in culture, FIG. 10
Procedure: Enrichment of T cell subsets was evaluated by analyzing the T cell receptor variable beta chain usage (Vβ). The 24 different known beta chain variable (Vβ) region families were evaluated using specific fluorescent-labeled monoclonal antibodies and flow cytometry. If a particular subset of T cells is selectively expanded by stimulation with a peptide, an increase would be detected in the percentage of cells expressing one of the V beta families as that subset expands.
[…] A T cell line was produced by stimulating the patient's PBMCs with peptide mix MBPm10, which had produced an SI of 4.6 in the original EAA for this patient. […] This mix was used to stimulate PBMCs from this patient in culture.

[4] = tested on: PBMCs / T cells; test: Growth analysis of T cell lines stimulated with EAA-selected peptide mixes; conditions: from 15 million PBMCs, in 20 days, 3 stimulations
Procedure: Patient-specific peptides identified by EAA were tested to determine whether they could be used to produce and expand myelin-reactive T-cells for use in a vaccine. A 500 ml bag of blood was obtained from the patient to set up vaccine production cultures. Bulk cultures were set up in AIM V medium along with the optimized peptides. After 48 hours of incubation, rIL-2 was added at 20 U/ml. Seven days later, the cultures were re-stimulated with PBMCs and peptide. The media was changed to 2% AB serum with 100 U/ml rIL2 in X Vivo 15 medium. The cultures were fed and split every 1-4 days as necessary. After an additional seven days, the cultures were once again stimulated with APCs and peptides. The cultures were continued to be fed and split every 1-4 days as necessary. After an additional 7-14 days, the cultures had expanded to at least 100×10^6 cells. The cells were divided into aliquots of 10×10^6 cells and frozen.
The ability of stimulation with the EAA-selected peptides to more rapidly expand the stimulated the T cells were tested. The cell growth curves were analyzed for two different stimulatory peptide mixes. The EAA CPM data shown in FIG. 8 show a strongly reactive mix in MBPm19 for a patient with an SI of 4.7. […] These two peptides mixes were then used to stimulate PBMCs from this patient to produce T cell lines. […]

| Substance | subjects tested that were reactive [1] | # of Subjects (frequency of identification) [2] | % of Subjects (frequency of identification) [2] | other results |
| --- | --- | --- | --- | --- |
| MBP 151-170: immunodominant peptide of MBP used to prepare vaccines in Example 1 (TASTMDHARHGFLPRHRDTG; UniProt P02686 151-170, looked up, fragment) | Forty-one percent |  |  |  |
| PLP 30-49: PLP immunodominant peptide used to prepare vaccines in Example 1 (ALFCGCGHEALTGTEKLIET; UniProt P60201 30-49, looked up, fragment) | 31% |  |  |  |
| PLP 180-199: PLP immunodominant peptide used to prepare vaccines in Example 1 (TWTTCQSIAFPSKTSASIGS; UniProt P60201 180-199, looked up, fragment) | 31% |  |  |  |
| PLPm27: mix of PLP 53 and PLP 54 (chain 1 VLPWNAFPGKVCGSNL; chain 2 NAFPGKVCGSNLLSIC) |  | 6 | 5.0% | TCR V beta focusing [3]: V beta chain 5-5 is expanding |
| PLPm33: mix of PLP 65 and PLP 66 (chain 1 FMIAATYNFAVLKLMG; chain 2 ATYNFAVLKLMGRGTK) |  | 11 | 9.2% | Stimulation Index (SI) ([1]; patient of Example 8, FIG. 8): 17.9; T cells after expansion [4]: 200 million T cells |
